Earlier results, collected in US10385405B2, “Gene expression markers of tumor resistance to HER2 inhibitor treatment” (GENENTECH, INC., priority 2007, dated 2019).

Tests used:
[1] = test system: trastuzumab-resistant models harboring PTEN loss or PIK3CA activating mutations
[2] = test system: incurable, locally advanced, recurrent or metastatic solid tumors

In the case of `CS(=O)(=O)N1CCN(Cc2cc3nc(-c4cccc5[nH]ncc45)nc(N4CCOCC4)c3s2)CC1` [GDC-0941], the “sensitivity of trastuzumab-resistant models” value [1] is listed as “sensitive”.

For “Pertuzumab: HER dimerization inhibitor antibody that inhibits HER2 forming heterodimers with other HER receptors”, the tolerability ([2]; given intravenously every 3 weeks) is given as “generally well tolerated”, the confirmed partial responses ([2]; in vivo) is given as “Two” and the tumor regression ([2]; patients evaluable for response) is given as 3 of 20. The “pharmacokinetics, linearity” value (doses of 2.0-15 mg/kg) was “linear” and the antibodies to pertuzumab (in vivo) was “not detected”.
